In patent US20230172204A1 (BASF SE, priority 2020, published 2023):

Columns and labels:
[1] = tested on: Phakopsora pachyrhizi (F129L); assay: Protective control of soybean rust on soybeans (PHAKPA P2); format: in vivo; settings: soybean rust F129L; for % PHAKPA (F129L) Disease level P2 at 4 ppm: protective P2, 4 ppm; for % PHAKPA (F129L) Disease level P2 at 16 ppm: protective P2, 16 ppm
[2] = tested on: Phakopsora pachyrhizi (F129L); assay: Protective control of soybean rust on soybeans (PHAKPA P6); format: in vivo; settings: soybean rust F129L; for % PHAKPA (F129L) Disease level P6 at 4 ppm: protective P6, 4 ppm; for % PHAKPA (F129L) Disease level P6 at 16 ppm: protective P6, 16 ppm

## CO/N=C(/C(=O)OC)c1cccc(C)c1CO/N=C(\C)c1c(F)cc(F)cc1C(F)(F)F [compound 360]
[1]
  % PHAKPA (F129L) Disease level P2 at 4 ppm: 53%
  % PHAKPA (F129L) Disease level P2 at 16 ppm: 9%
[2]
  % PHAKPA (F129L) Disease level P6 at 4 ppm: 80%
  % PHAKPA (F129L) Disease level P6 at 16 ppm: 5%

## CO/N=C(/C(=O)OC)c1cccc(C)c1CO/N=C(\C)c1c(F)cc(F)cc1OC(F)(F)F [compound 361]
[1]
  % PHAKPA (F129L) Disease level P2 at 4 ppm: 80%
  % PHAKPA (F129L) Disease level P2 at 16 ppm: 18%
[2]
  % PHAKPA (F129L) Disease level P6 at 4 ppm: 88%
  % PHAKPA (F129L) Disease level P6 at 16 ppm: 31%

## CNC(=O)/C(=N/OC)c1cccc(C)c1CO/N=C(\C)c1ccc(OC(F)(F)F)cc1C(F)(F)F [compound 363]
[1]
  % PHAKPA (F129L) Disease level P2 at 4 ppm: 29%
  % PHAKPA (F129L) Disease level P2 at 16 ppm: 1%
[2]
  % PHAKPA (F129L) Disease level P6 at 4 ppm: 25%
  % PHAKPA (F129L) Disease level P6 at 16 ppm: 2%

## CO/N=C(/C(=O)OC)c1cccc(C)c1CO/N=C(\C)c1c(F)cccc1C(F)(F)F [compound 365]
[1]
  % PHAKPA (F129L) Disease level P2 at 4 ppm: 77%
  % PHAKPA (F129L) Disease level P2 at 16 ppm: 15%
[2]
  % PHAKPA (F129L) Disease level P6 at 4 ppm: 97%
  % PHAKPA (F129L) Disease level P6 at 16 ppm: 43%

## CO/N=C(/C(=O)OC)c1cccc(C)c1CO/N=C(\C)c1c(F)ccc(F)c1OC(F)(F)F [compound 366]
[1]
  % PHAKPA (F129L) Disease level P2 at 4 ppm: 53%
  % PHAKPA (F129L) Disease level P2 at 16 ppm: 13%
[2]
  % PHAKPA (F129L) Disease level P6 at 4 ppm: 83%
  % PHAKPA (F129L) Disease level P6 at 16 ppm: 12%

## CO/N=C(/C(=O)OC)c1cccc(C)c1CO/N=C(\C)c1c(F)cc(Br)cc1C(F)(F)F [compound 368]
[1]
  % PHAKPA (F129L) Disease level P2 at 4 ppm: 83%
  % PHAKPA (F129L) Disease level P2 at 16 ppm: 47%
[2]
  % PHAKPA (F129L) Disease level P6 at 4 ppm: 90%
  % PHAKPA (F129L) Disease level P6 at 16 ppm: 73%

## CNC(=O)/C(=N/OC)c1cccc(C)c1CO/N=C(\C)c1ccccc1C(C)(F)F [compound 372]
[1]
  % PHAKPA (F129L) Disease level P2 at 4 ppm: 85%
  % PHAKPA (F129L) Disease level P2 at 16 ppm: 26%
[2]
  % PHAKPA (F129L) Disease level P6 at 4 ppm: 85%
  % PHAKPA (F129L) Disease level P6 at 16 ppm: 16%

## CO/N=C(/C(=O)OC)c1cccc(C)c1CO/N=C(\C)c1ccc(OC)cc1OC(F)(F)F [compound 373]
[1]
  % PHAKPA (F129L) Disease level P2 at 4 ppm: 77%
  % PHAKPA (F129L) Disease level P2 at 16 ppm: 27%
[2]
  % PHAKPA (F129L) Disease level P6 at 4 ppm: 100%
  % PHAKPA (F129L) Disease level P6 at 16 ppm: 38%

## CNC(=O)/C(=N/OC)c1cccc(C)c1CO/N=C(\C)c1ccc(Cl)cc1OC(F)(F)F [compound 375]
[1]
  % PHAKPA (F129L) Disease level P2 at 4 ppm: 47%
  % PHAKPA (F129L) Disease level P2 at 16 ppm: 8%
[2]
  % PHAKPA (F129L) Disease level P6 at 4 ppm: 40%
  % PHAKPA (F129L) Disease level P6 at 16 ppm: 6%

## CNC(=O)/C(=N/OC)c1cccc(C)c1CO/N=C(\C)c1ccc(F)cc1OC(F)(F)F [compound 378]
[1]
  % PHAKPA (F129L) Disease level P2 at 4 ppm: 18%
  % PHAKPA (F129L) Disease level P2 at 16 ppm: 1%
[2]
  % PHAKPA (F129L) Disease level P6 at 4 ppm: 17%
  % PHAKPA (F129L) Disease level P6 at 16 ppm: 1%

## CNC(=O)/C(=N/OC)c1cccc(C)c1CO/N=C(\CC(F)(F)F)c1ccccc1 [compound 380]
[1]
  % PHAKPA (F129L) Disease level P2 at 4 ppm: 53%
  % PHAKPA (F129L) Disease level P2 at 16 ppm: 5%
[2]
  % PHAKPA (F129L) Disease level P6 at 4 ppm: 60%
  % PHAKPA (F129L) Disease level P6 at 16 ppm: 12%

## CCC/C(=N\OCc1c(C)cccc1/C(=N\OC)C(=O)OC)c1ccccc1 [compound 387]
[1]
  % PHAKPA (F129L) Disease level P2 at 4 ppm: 60%
  % PHAKPA (F129L) Disease level P2 at 16 ppm: 30%
[2]
  % PHAKPA (F129L) Disease level P6 at 4 ppm: 80%
  % PHAKPA (F129L) Disease level P6 at 16 ppm: 47%

## CCC/C(=N\OCc1c(C)cccc1/C(=N\OC)C(=O)NC)c1ccccc1 [compound 388]
[1]
  % PHAKPA (F129L) Disease level P2 at 4 ppm: 1%
  % PHAKPA (F129L) Disease level P2 at 16 ppm: 0%
[2]
  % PHAKPA (F129L) Disease level P6 at 4 ppm: 3%
  % PHAKPA (F129L) Disease level P6 at 16 ppm: 0%

## CNC(=O)/C(=N/OC)c1cccc(C)c1CO/N=C(/c1ccccc1)C(C)C [compound 389]
[1]
  % PHAKPA (F129L) Disease level P2 at 4 ppm: 28%
  % PHAKPA (F129L) Disease level P2 at 16 ppm: 4%
[2]
  % PHAKPA (F129L) Disease level P6 at 4 ppm: 43%
  % PHAKPA (F129L) Disease level P6 at 16 ppm: 3%

## CO/C=C(/C(=O)OC)c1cccc(C)c1CO/N=C(\C)c1c(F)cccc1C(F)(F)F [compound 390]
[1]
  % PHAKPA (F129L) Disease level P2 at 4 ppm: 22%
  % PHAKPA (F129L) Disease level P2 at 16 ppm: 0%
[2]
  % PHAKPA (F129L) Disease level P6 at 4 ppm: 18%
  % PHAKPA (F129L) Disease level P6 at 16 ppm: 2%

## CNC(=O)/C(=N/OC)c1cccc(C)c1CO/N=C(\CC(F)(F)F)c1ccccc1C [compound 393]
[1]
  % PHAKPA (F129L) Disease level P2 at 4 ppm: 93%
  % PHAKPA (F129L) Disease level P2 at 16 ppm: 55%
[2]
  % PHAKPA (F129L) Disease level P6 at 4 ppm: 93%
  % PHAKPA (F129L) Disease level P6 at 16 ppm: 42%

## CNC(=O)/C(=N/OC)c1cccc(C)c1CO/N=C(\C)c1ccc(F)cc1CC(F)(F)F [compound 394]
[1]
  % PHAKPA (F129L) Disease level P2 at 4 ppm: 9%
  % PHAKPA (F129L) Disease level P2 at 16 ppm: 3%
[2]
  % PHAKPA (F129L) Disease level P6 at 4 ppm: 12%
  % PHAKPA (F129L) Disease level P6 at 16 ppm: 2%

## CO/N=C(/C(=O)OC)c1cccc(Br)c1CO/N=C(\C)c1ccccc1 [compound 395]
[1]
  % PHAKPA (F129L) Disease level P2 at 4 ppm: 43%
  % PHAKPA (F129L) Disease level P2 at 16 ppm: 4%
[2]
  % PHAKPA (F129L) Disease level P6 at 4 ppm: 67%
  % PHAKPA (F129L) Disease level P6 at 16 ppm: 18%

## CNC(=O)/C(=N/OC)c1cccc(Br)c1CO/N=C(\C)c1ccccc1 [compound 396]
[1]
  % PHAKPA (F129L) Disease level P2 at 4 ppm: 3%
  % PHAKPA (F129L) Disease level P2 at 16 ppm: 0%
[2]
  % PHAKPA (F129L) Disease level P6 at 4 ppm: 4%
  % PHAKPA (F129L) Disease level P6 at 16 ppm: 0%

## C=C(C)c1cccc(/C(=N\OC)C(=O)NC)c1CO/N=C(\C)c1ccccc1 [compound 399]
[1]
  % PHAKPA (F129L) Disease level P2 at 4 ppm: 67%
  % PHAKPA (F129L) Disease level P2 at 16 ppm: 8%
[2]
  % PHAKPA (F129L) Disease level P6 at 4 ppm: 90%
  % PHAKPA (F129L) Disease level P6 at 16 ppm: 15%

## C=Cc1cccc(/C(=N\OC)C(=O)NC)c1CO/N=C(\C)c1ccccc1 [compound 400]
[1]
  % PHAKPA (F129L) Disease level P2 at 4 ppm: 2%
  % PHAKPA (F129L) Disease level P2 at 16 ppm: 0%
[2]
  % PHAKPA (F129L) Disease level P6 at 4 ppm: 8%
  % PHAKPA (F129L) Disease level P6 at 16 ppm: 0%

## C#Cc1cccc(/C(C)=N/OCc2c(C)cccc2/C(=N\OC)C(=O)NC)c1F [compound 401]
[1]
  % PHAKPA (F129L) Disease level P2 at 4 ppm: 17%
  % PHAKPA (F129L) Disease level P2 at 16 ppm: 5%
[2]
  % PHAKPA (F129L) Disease level P6 at 4 ppm: 32%
  % PHAKPA (F129L) Disease level P6 at 16 ppm: 4%

## CO/C=C(/C(=O)OC)c1cccc(C)c1CO/N=C(\C)c1cc(F)c(F)cc1CC(F)(F)F [compound 405]
[1]
  % PHAKPA (F129L) Disease level P2 at 4 ppm: 97%
  % PHAKPA (F129L) Disease level P2 at 16 ppm: 27%
[2]
  % PHAKPA (F129L) Disease level P6 at 4 ppm: 70%
  % PHAKPA (F129L) Disease level P6 at 16 ppm: 27%

## CNC(=O)/C(=N/OC)c1cccc(C)c1CO/N=C(\C)c1cc(F)c(F)cc1CC(F)(F)F [compound 406]
[1]
  % PHAKPA (F129L) Disease level P2 at 4 ppm: 97%
  % PHAKPA (F129L) Disease level P2 at 16 ppm: 30%
[2]
  % PHAKPA (F129L) Disease level P6 at 4 ppm: 67%
  % PHAKPA (F129L) Disease level P6 at 16 ppm: 23%

## CNC(=O)/C(=N/OC)c1cccc(C)c1CO/N=C(\C)c1ccc(Cc2ccccc2)cc1C(F)(F)F [compound 407]
[1]
  % PHAKPA (F129L) Disease level P2 at 4 ppm: 12%
  % PHAKPA (F129L) Disease level P2 at 16 ppm: 6%
[2]
  % PHAKPA (F129L) Disease level P6 at 4 ppm: 17%
  % PHAKPA (F129L) Disease level P6 at 16 ppm: 4%

## CO/N=C(/C(=O)OC)c1cccc(C)c1CO/N=C(\C)c1ccc(Cc2ccccc2)cc1C(F)(F)F [compound 408]
[1]
  % PHAKPA (F129L) Disease level P2 at 4 ppm: 30%
  % PHAKPA (F129L) Disease level P2 at 16 ppm: 12%
[2]
  % PHAKPA (F129L) Disease level P6 at 4 ppm: 33%
  % PHAKPA (F129L) Disease level P6 at 16 ppm: 13%
